# Laboratory results from US20130231472A1, “USE OF MOLECULAR MARKERS FOR THE PRECLINICAL PROFILING OF INHIBITORS OF ENZYMES HAVING HISTONE DEACETYLASE ACTIVITY” (priority 2002, published 2013).
# Square brackets hold non-standard residues; d marks the D form. Peptide text beside a SMILES is read from it. * marks the point of attachment. Aoe = N[C@@H](CCCCCC(=O)[C@@H]1CO1)C(=O)O; Sta = CC(C)C[C@H](N)[C@@H](O)CC(=O)O; Isovaleryl = CC(C)CC(=O)*; Nle = CCCC[C@H](N)C(=O)O; Cbz = O=C(OCc1ccccc1)*
# B1: E3 ubiquitin ligase RLIM (protein)
# chain: MENSDSNDKGSGDQSAAQRRSQMDRLDREEAFYQFVNNLSEEDYRLMRDNNLLGTPGESTEEELLRRLQQIKEGPPPQNSDENRGGDSSDDVSNGDSIIDWLNSVRQTGNTTRSGQRGNQSWRAVCRTNPNSGNFRFSLEINVYSNNGSQNSENENEPSARRSSGENVENNSQRQVENPRSESTSARPSRSERNSTEALTEVPPTRGQRRARSRSPDHRRTRARAERSRSPLHPMSEIPRRSHHSISSQTFEHPLVNETEGSSRTRHHVTLRQQISGPELLSRGLFAASGTRNASQGAGSSDTAASGESTGSGQRPPTIVLDLQVRRVRPGEYRQRDSIASRTRSRSQTPNNTVTYESERGGFRRTFSRSERAGVRTYVSTIRIPIRRILNTGLSETTSVAIQTMLRQIMTGFGELSYFMYSDSDSEPTGSVSNRNMERAESRSGRGGSGGGSSSGSSSSSSSSSSSSSSSSSSSSPSSSSGGESSETSSDLFEGSNEGSSSSGSSGARREGRHRAPVTFDESGSLPFLSLAQFFLLNEDDDDQPRGLTKEQIDNLAMRSFGENDALKTCSVCITEYTEGNKLRKLPCSHEYHVHCIDRWLSENSTCPICRRAVLASGNRESVV
# Legend:
# HDAC-2 [1] = test: HDAC-2 protein levels in HEK293T cells (Westernblot); format: cell-based, human; conditions: for effect of protease inhibitor on control or VPA-repressed HDAC-2 protein levels: 24 h with or without VPA, FIG. 9A; for effect of proteasome inhibitor on VPA-induced degradation of HDAC-2: co-treatment with VPA, inhibitor added 4 h before harvest, FIG. 9B
# Protocol: (§1) FIG. 6: (A) F9 teratocarcinoma or HEK293T embryonic kidney cells were exposed for indicated times to 1 mM VPA. Protein levels of HDAC-2 and HDACs 1 or 3 for reference (HDAC8; N-CoR and Sin3 as data not shown) were determined by Westernblot analysis. […] (C) The effect of other HDAC inhibitors on the amount of HDAC-2 protein was determined by using TSA (100 nM) in a time course analysis in F9 cells (left panel). The HDAC inhibitors TSA (100 nM), trapoxin (TPX, 10 nM), butyrate (1.5 mM) or MS275 (5 μM) were tested at a single time of exposure in HEK293T cells (right panel).
# FIG. 9: (A) HEK293T cells were treated for 24 h with VPA or left untreated. The cell penetrating protease inhibitors pepstatin A, leupeptin, or ALLM were added as indicated at the time of VPA addition. (B) Proteasome inhibitors ALLN or MG-132 were added at the indicated concentrations 4 h before cells were harvested. Protein levels of HDAC-2 were determined by Westernblot analysis.
# T-cell lymphomas = conditions: phase II; cited from earlier work
# HDACs = test: Inhibition of HDACs; format: biochemical
# PML-RAR leukemia = conditions: one PML-RAR patient with multiple relapses after retinoic acid; cited from earlier work
# F9 cells = test: Toxicity in F9 cells (cell loss, actin loading control); format: cell-based, murine; conditions: 48 h TSA (100 nM)
# Protocol: as §1
# HDAC-2 [2] = test: Ubiquitinated proteins in anti HDAC-2 immune precipitates (Westernblot against ubiquitin); format: cell-based; conditions: VPA 1.5 mM, 24 h; ALLN 5 μM; FIG. 10A
# Text: FIG. 10: (A) The total amount of high molecular weight poly-ubiquitinated protein was not altered by VPA treatment of cells (left two lanes). The presence of ubiquitinated proteins in anti HDAC-2 immune precipitates is shown in the right part of the panel. […] Ubiquitinated proteins in the precipitates were detected by Western blot analysis. For lane N a non-immune serum was used instead of the anti HDAC-2 antibody. (B) The presence of mono- and/or oligo-ubiquitinated HDAC-2 upon VPA treatment of HEK293T cells was determined by ectopic expression of His6-tagged ubiquitin followed by VPA-treatment for 36 h as indicated. The proteasome inhibitor MG-132 was added 4 h prior to analysis to enhance the accumulation of ubiquitinated proteins. Electrophoretic mobility and unaltered presence of non-ubiquitinated HDAC-2 were determined by Westernblot analysis of whole cell extracts (left panel). […] Anti-HDAC-2 immuno-reactive bands with the expected mobility of mono- or poly-ubiquitinated HDAC-2 are indicated by a bracket.
# RLIM = RLIM protein levels in HEK293T cells (Westernblot); format: cell-based, human; conditions: 24 hours
# Protocol: FIG. 12 (A) RLIM protein levels were determined by Westernblot analysis after treatment of HEK293T cells for 24 hours with the HDAC inhibitors VPA (0.5, 1.5, or 5 mM), TSA (30, 100 or 300 nM) or a combination of VPA (1.5 mM) and TSA (100 nM). Actin protein levels are shown as a control for equal loading. (B) RLIM protein levels were determined by Westernblot analysis after treatment of HEK293T cells for 24 hours with the HDAC inhibitor TSA (100 nM), the proteasome inhibitor ALLN (2.5 μM) or a combination of both. Actin protein levels are shown as a control for equal loading.
# HDAC-2 [3] = test: HDAC-2 protein levels in F9 teratocarcinoma cells (Westernblot); format: cell-based, murine
# Protocol: as §1
# [4] = tested on: stage III/IV non-small cell lung cancer; conditions: monotherapy, phase II; cited from earlier work
# TRAIL = TRAIL expression in spleen after in vivo treatment (RNAse protection assay); design: species or system mice; conditions: leukemic mice; 96 hours of retinoic acid treatment (21-day-release pellet, 5 mg RA); FIG. 4A
# Protocol: Leukemic mice or healthy mice (Ctrl) were then treated with placebo (lanes 1, 3), VPA (400 mg/kg every 12 hours), all-trans retinoic acid (a 21-day-release pellet containing 5 mg RA or placebo: lanes 8-9), and VPA plus retinoic acid (lanes 10-11). Mice were sacrificed 18 hours (lanes 4-5), or 36 hours after beginning of treatment (lanes 3, 6-7, 10-11): total RNAs were collected from the spleens (with a >75% invasion of leukemic blasts as assessed by Giemsa staining) and analyzed by RNAse protection assay to check for expression of TRAIL.
# [5] = HEK293T cells, VPA 1 mM, TSA 100 nM, trapoxin 10 nM, butyrate 1.5 mM, MS275 5 μM
# Chain of HDAC-4 (P56524 whole entry): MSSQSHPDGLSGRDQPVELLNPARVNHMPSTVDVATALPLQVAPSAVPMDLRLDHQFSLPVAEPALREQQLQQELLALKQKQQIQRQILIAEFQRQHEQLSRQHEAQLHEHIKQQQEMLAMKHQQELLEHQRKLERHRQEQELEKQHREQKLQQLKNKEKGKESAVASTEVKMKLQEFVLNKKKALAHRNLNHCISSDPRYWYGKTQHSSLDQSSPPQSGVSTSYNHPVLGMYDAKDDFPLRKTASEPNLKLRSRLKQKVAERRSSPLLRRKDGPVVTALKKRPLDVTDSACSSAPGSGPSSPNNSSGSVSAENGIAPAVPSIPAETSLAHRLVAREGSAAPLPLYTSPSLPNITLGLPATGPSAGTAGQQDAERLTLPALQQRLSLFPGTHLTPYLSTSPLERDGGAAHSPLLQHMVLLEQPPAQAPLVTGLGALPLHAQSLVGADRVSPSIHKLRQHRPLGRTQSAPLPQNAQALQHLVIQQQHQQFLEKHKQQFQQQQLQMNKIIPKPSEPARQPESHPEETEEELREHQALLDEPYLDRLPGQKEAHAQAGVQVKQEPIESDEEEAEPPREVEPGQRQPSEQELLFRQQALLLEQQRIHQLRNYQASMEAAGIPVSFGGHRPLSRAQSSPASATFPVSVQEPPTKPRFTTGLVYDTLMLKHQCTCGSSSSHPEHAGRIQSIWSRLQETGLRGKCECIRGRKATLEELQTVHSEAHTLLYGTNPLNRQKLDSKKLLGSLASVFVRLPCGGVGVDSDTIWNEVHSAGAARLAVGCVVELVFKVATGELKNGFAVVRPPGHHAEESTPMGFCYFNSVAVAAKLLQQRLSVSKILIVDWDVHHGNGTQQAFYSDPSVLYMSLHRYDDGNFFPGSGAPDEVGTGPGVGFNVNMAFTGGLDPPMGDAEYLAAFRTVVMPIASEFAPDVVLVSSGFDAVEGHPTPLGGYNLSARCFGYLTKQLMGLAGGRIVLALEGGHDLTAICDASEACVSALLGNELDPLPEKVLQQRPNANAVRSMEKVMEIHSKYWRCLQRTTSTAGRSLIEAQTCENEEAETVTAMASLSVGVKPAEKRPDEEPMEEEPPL
molecule,measurement,setting,value
O=C1N[C@@H](Cc2ccccc2)C(=O)N2CCC[C@@H]2C(=O)N[C@@H](CCCCCC(=O)[C@@H]2CO2)C(=O)N[C@H]1Cc1ccccc1 [trapoxin] (cyclo(FF[dP][Aoe])),HDAC-2 protein levels,HDAC-2 [1]; [5],Neither the cyclic tetrapeptide HDAC inhibitor trapoxin nor the anilide-based HDAC inhibitor MS-275 induces reduction of HDAC-2 protein levels
C/C=C1\NC(=O)[C@H]2CSSCC/C=C/[C@H](CC(=O)N[C@H](C(C)C)C(=O)N2)OC(=O)[C@H](C(C)C)NC1=O [depsipeptide],clinical outcome,T-cell lymphomas,used successfully
"CCCC(=O)O [Butyrate, butyric acid]",HDAC-2 protein levels,HDAC-2 [1]; [5],Reduction of HDAC-2 protein levels
CCCC(CCC)C(N)=O [valpromide],HDAC-2 protein levels,HDAC-2 [1]; cell line and concentration not stated,does not affect HDAC-2 protein levels
same,HDAC inhibition,HDACs,does not inhibit HDACs
phenylbutyrate,clinical response of leukemia,PML-RAR leukemia,complete remission of the leukemia
"CC(/C=C/C(=O)NO)=C\[C@@H](C)C(=O)c1ccc(N(C)C)cc1 [TSA, trichostatin A]","toxicity (cell loss, reduction in actin loading control)",F9 cells,toxic
same,HDAC-2 protein levels,HDAC-2 [1],does not reduce HDAC-2 levels
same,amount of ubiquitinated protein precipitated with antibody against HDAC-2,HDAC-2 [2],no effect
same,RLIM protein levels / degradation,"RLIM; VPA 0.5, 1.5 or 5 mM, TSA 30, 100 or 300 nM, FIG. 12",induce an enhanced proteosomal degradation of the E3 ligase RLIM
same,HDAC-2 protein levels,HDAC-2 [3],does not reduce HDAC-2 levels
CC(=O)N[C@@H](CC(C)C)C(=O)N[C@@H](CC(C)C)C(=O)N[C@H](C=O)CCCNC(=N)N [leupeptin],effect of protease inhibitor on control or VPA-repressed HDAC-2 protein levels,HDAC-2 [1]; HEK293T cells,"Neither of the protease inhibitors pepstatin A, leupeptin or ALLM had an effect"
CCCC(=O)OCOC(=O)C(C)(C)C [Pivanex],clinical activity,[4],demonstrating activity in stage III/IV non-small cell lung cancer
CC(C)C[C@@H](C=O)NC(=O)[C@H](CC(C)C)NC(=O)[C@H](CC(C)C)NC(=O)OCc1ccccc1 [MG-132] (Cbz-Leu-Leu-Leu-aldehyde),effect of proteasome inhibitor on VPA-induced degradation of HDAC-2,HDAC-2 [1]; HEK293T cells,abolished VPA-induces degradation of HDAC-2 completely
CCCC[C@@H](C=O)NC(=O)[C@H](CC(C)C)NC(=O)[C@H](CC(C)C)NC(C)=O [ALLN] (Ac-Leu-Leu-[Nle]-aldehyde),effect of proteasome inhibitor on VPA-induced degradation of HDAC-2,HDAC-2 [1]; HEK293T cells,abolished VPA-induces degradation of HDAC-2 completely
same,amount of ubiquitinated protein precipitated with antibody against HDAC-2,HDAC-2 [2],increase the amount of this anti-ubiquitin reactive protein
same,block of TSA-induced proteosomal degradation of RLIM,"RLIM; TSA 100 nM plus ALLN 2.5 μM, FIG. 12B",can be blocked
CC(C)CC(=O)N[C@H](C(=O)N[C@H](C(=O)N[C@@H](CC(C)C)[C@@H](O)CC(=O)N[C@@H](C)C(=O)N[C@@H](CC(C)C)[C@@H](O)CC(=O)O)C(C)C)C(C)C [pepstatin A] (Isovaleryl-VV[Sta]A[Sta]-OH),effect of protease inhibitor on control or VPA-repressed HDAC-2 protein levels,HDAC-2 [1]; HEK293T cells,"Neither of the protease inhibitors pepstatin A, leupeptin or ALLM had an effect"
CSCC[C@@H](C=O)NC(=O)[C@H](CC(C)C)NC(=O)[C@H](CC(C)C)NC(C)=O [ALLM] (Ac-Leu-Leu-Met-aldehyde),effect of protease inhibitor on control or VPA-repressed HDAC-2 protein levels,HDAC-2 [1]; HEK293T cells,"Neither of the protease inhibitors pepstatin A, leupeptin or ALLM had an effect"
MS-275,HDAC-2 protein levels,HDAC-2 [1]; [5],Neither the cyclic tetrapeptide HDAC inhibitor trapoxin nor the anilide-based HDAC inhibitor MS-275 induces reduction of HDAC-2 protein levels
"CC1=C(/C=C/C(C)=C/C=C/C(C)=C/C(=O)O)C(C)(C)CCC1 [retinoic acid, all-trans retinoic acid]",TRAIL expression in spleen,TRAIL,as strongly as upon 96 hours of retinoic acid treatment
B1,"in vitro ubiquitination (Ubc8 as E2, RLIM as E3)",HDAC-4,the class II HDAC-4 are substrates for Ubc8/RLIM
